Laboratory results reported in patent US7109360B1, “16-hydroxyestratrienes as selectively active estrogens” (priority 1999, dated 2006).

How the values were obtained:
hERβ [1] = experiment: Relative binding affinity to hERβ, cited from Kuiper et al.; design: species or system human; details: Table 1; quotient of cited RBA hERβ / hERα
Excerpt: In this case, it is assumed that ERβ predominates in the rat prostates over ERα, and ERα predominates in rat uteri over ERβ.

[2] = target: T1, estrogen receptor preparations of rat uteri (Rattus norvegicus, UniProt P06211); experiment: Competitive 3H-estradiol binding to estrogen receptor of rat uterus cytosol
T1 construct: The preparation of rat uterus cytosol, as well as the receptor test with the ER-containing cytosol; from tissue; host or cells: rat uterus cytosol
T1 sequence (P06211 1-600): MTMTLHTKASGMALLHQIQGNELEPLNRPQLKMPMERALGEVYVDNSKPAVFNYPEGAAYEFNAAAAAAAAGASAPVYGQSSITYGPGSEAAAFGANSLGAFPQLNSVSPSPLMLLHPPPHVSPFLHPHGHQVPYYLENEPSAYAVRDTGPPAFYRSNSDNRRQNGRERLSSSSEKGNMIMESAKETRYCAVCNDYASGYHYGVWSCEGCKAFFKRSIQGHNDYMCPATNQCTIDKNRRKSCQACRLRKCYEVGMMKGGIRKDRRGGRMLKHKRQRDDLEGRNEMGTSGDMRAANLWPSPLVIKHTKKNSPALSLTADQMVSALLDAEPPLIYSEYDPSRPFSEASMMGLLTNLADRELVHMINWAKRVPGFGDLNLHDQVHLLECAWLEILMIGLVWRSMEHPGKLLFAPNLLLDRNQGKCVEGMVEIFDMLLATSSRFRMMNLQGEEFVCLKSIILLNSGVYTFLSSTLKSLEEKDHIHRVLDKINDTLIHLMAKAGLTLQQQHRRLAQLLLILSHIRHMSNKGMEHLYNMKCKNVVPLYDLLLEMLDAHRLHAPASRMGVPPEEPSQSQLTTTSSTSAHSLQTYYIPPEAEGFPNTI

[3] = test system: estrogen receptor preparations of rat prostates; experiment: Competitive 3H-estradiol binding to estrogen receptor of rat prostate cytosol; details: for prost. ER/uterus ER: ratio RBA prostate-ER / RBA uterus-ER
[4] = target: T2, human estrogen receptor α (Homo sapiens, UniProt P03372); experiment: Binding to human estrogen receptor α produced by Baculovirus/SF-9 expression system; details: Table 2; human ERα from Baculovirus/SF-9, estradiol = 100
T2 construct: made in house; host or cells: Baculovirus/SF-9
T2 sequence (P03372 1-595): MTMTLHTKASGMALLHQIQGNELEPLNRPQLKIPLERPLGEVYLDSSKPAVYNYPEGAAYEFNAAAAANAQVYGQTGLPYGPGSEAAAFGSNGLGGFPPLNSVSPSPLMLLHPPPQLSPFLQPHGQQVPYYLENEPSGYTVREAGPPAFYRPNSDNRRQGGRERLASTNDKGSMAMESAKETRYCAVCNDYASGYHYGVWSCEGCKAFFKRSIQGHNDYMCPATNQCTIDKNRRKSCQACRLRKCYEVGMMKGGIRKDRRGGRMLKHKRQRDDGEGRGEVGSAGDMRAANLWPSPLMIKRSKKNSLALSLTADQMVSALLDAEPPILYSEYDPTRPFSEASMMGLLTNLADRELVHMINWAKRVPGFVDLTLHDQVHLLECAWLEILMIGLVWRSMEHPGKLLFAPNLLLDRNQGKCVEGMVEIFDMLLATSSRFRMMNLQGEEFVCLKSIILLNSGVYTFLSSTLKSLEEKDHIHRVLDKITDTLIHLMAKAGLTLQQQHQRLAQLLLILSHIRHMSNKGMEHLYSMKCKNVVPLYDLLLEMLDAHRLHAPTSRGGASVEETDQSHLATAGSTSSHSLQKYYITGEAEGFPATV

[5] = target: T3, human estrogen receptor β (Homo sapiens, UniProt Q92731); experiment: Binding to human estrogen receptor β produced by Baculovirus/SF-9 expression system; details: for hERβ RBA / ERβ/ERα: Table 2; for hERβ RBA: human ERβ from Baculovirus/SF-9, estradiol = 100; for ERβ/ERα: quotient RBA ERβ / RBA ERα
T3 construct: made in house; host or cells: Baculovirus/SF-9
T3 sequence (Q92731 whole entry): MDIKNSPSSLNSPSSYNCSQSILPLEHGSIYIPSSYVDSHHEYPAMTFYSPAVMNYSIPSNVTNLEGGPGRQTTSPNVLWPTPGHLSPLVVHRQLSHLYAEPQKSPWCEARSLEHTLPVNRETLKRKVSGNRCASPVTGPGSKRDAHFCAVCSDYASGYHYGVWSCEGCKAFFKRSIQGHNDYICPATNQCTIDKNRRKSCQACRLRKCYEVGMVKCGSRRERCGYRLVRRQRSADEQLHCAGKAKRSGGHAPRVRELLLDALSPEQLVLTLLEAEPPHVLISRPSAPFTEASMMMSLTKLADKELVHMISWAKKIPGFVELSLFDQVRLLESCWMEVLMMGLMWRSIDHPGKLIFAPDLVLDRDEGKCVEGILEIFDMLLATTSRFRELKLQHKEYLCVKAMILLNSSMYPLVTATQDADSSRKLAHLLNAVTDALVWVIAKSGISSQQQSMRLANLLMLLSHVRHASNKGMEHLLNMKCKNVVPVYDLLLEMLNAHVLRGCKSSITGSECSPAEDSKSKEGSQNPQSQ

hERβ [6] = details: Table 1; estradiol = 100; cited from Kuiper et al. (1996); cited from earlier work
[7] = test system: trabecular bone density in ovariectomized female rats; experiment: Bone studies: bone density of proximal tibia (pQCT) in ovariectomized rats; type: in vivo, rat; details: s.c. once daily for 28 days, relative to bone mass loss of untreated ovariectomized vs sham-operated animals
Experimental: (§1) Three-month-old female rats are ovariectomized and treated once daily with the test compound immediately after the operation for 28 days. The administration is carried out subcutaneously in arachis oil/ethanol. The animals are sacrificed on the day after the last administration, and tibia as well as uteri are removed. The uteri are weighed, fixed and worked up for histological studies. The determination of bone density is carried out ex vivo on prepared long bones by means of pQCT (quantitative computer tomography). The measurements are made at a distance of 4–6 mm from the ball of the joint of the proximal tibia.
The ovariectomy reduces the density of the trabecular bone in the measured area by about 400 mg of Ca^2+/cm^3 to about 300 mg of Ca^2+/cm^3. By treatment with a compound of general formula I according to this invention, the degradation of the bone density is prevented or inhibited. The bone density in the proximal tibia was measured.
(§2) Estra-1,3,5(10)-triene-3,16α-diol reflects this in vivo in the greatly different amounts, which produce a 50% bone protection [3 μg/animal] or a 50% uterus stimulation [30 μg/animal], relative to the bone mass loss, which can be measured in ovariectomized, untreated female rats 28 days after the ovariectomy unlike in intact animals that are subjected to sham operations.

[8] = test system: uterus of ovariectomized female rats; experiment: Bone studies: uterus stimulation (uterus weight) in ovariectomized rats; type: in vivo, rat; details: s.c. once daily for 28 days
Experimental: as §1, §2

[9] = Table 1, 3H-estradiol as ligand, estradiol = 100

| SMILES | Rat uterus ER (RBA) ([2]; Table 2, estradiol = 100) | Rat prost. ER (RBA) [3, 9] | Rat prost. ER (RBA) ([3]; Table 2, estradiol = 100) | prost. ER/uterus ER ([3]; Table 2) | hERα RBA [4] | hERβ RBA [5] | ERβ/ERα [5] | further results |
| --- | --- | --- | --- | --- | --- | --- | --- | --- |
| C[C@]12CC[C@H]3[C@@H](CC=C4C[C@@H](O)CC[C@@]43C)[C@@H]1CC[C@@H]2O [5-Androstenediol] | 0.1 | 5 | 5 | 50 | 1.7 | 10 | 6 | ERβ/ERα (hERβ [1]): 3; Rat uterus ER (RBA) [2, 9]: 0.1; prost. ER/uterus ER ([3]; Table 1): 50; hERβ RBA (hERβ [6]): 17 |
| C[C@]12CC[C@@H]3c4ccc(O)cc4CC[C@H]3[C@@H]1C[C@@H](O)C2 [16α-Estradiol, estra-1,3,5(10)-triene-3,16α-diol] | – | – | – | – | – | – | – | Rat uterus ER (RBA) ([2]; Table 3): 9; Rat prost. ER (RBA) ([3]; Table 3): 50; Receptor binding ERβ (RBA)/ERα (RBA) ([5]; Table 3): 6; 50% bone protection [7]: 3 μg/animal; 50% uterus stimulation [8]: 30 μg/animal |
| C[C@]12CC[C@@H]3c4ccc(O)cc4CC[C@H]3[C@@H]1C[C@@H](O)C2=O [16α-hydroxyestrone] | – | – | – | – | – | – | – | RBA value on rat prostate estrogen receptor relative to RBA value on rat uterus estrogen receptor [3]: five times better; binding to human estrogen receptor β relative to human estrogen receptor α [5]: three times better |
| C[C@]12CC[C@@H]3c4ccc(O)cc4CC[C@H]3[C@@H]1CC[C@H]2O [17α-Estradiol] | – | 1.3 | – | – | – | – | – | – |
| C#C[C@@]1(O)C[C@@H]2CC[C@@H]3[C@H](CC[C@@]4(C)[C@H]3CC[C@@]4(O)C#C)[C@@]2(C)C1 [Anordiol] | 6.6 | – | <0.01 | <0.01 | 15 | 0.2 | 0.01 | – |
| O=c1oc2cc(O)ccc2c2oc3cc(O)ccc3c12 [Coumestrol] | – | – | – | – | – | 100 | – | – |
| C[C@]12CC[C@@H]3c4ccc(O)cc4CC[C@H]3[C@@]13CC[C@]2(O)[C@H](O)C3 [Cyclotriol] | 50 | – | 17 | 0.3 | 36 | 10 | 0.3 | – |
| C[C@]12CC[C@@H]3c4ccc(O)cc4CC[C@H]3[C@@H]1C[C@@H](O)[C@@H]2O [Estriol] | – | – | – | – | – | – | – | hERβ RBA (hERβ [6]): 21 |
| O=c1c(-c2ccc(O)cc2)coc2cc(O)cc(O)c12 [Genisteine] | – | 10 | 10 | – | – | – | – | – |
| O=C(c1ccc(OCCN2CCCCC2)cc1)c1c(-c2ccc(O)cc2)sc2cc(O)ccc12 [Raloxifene] | – | – | 1.5 | – | – | 9 | – | – |
